In data set [1] the test system is PcpS. Briefly: Screening of the LOPAC1280 library for PcpS inhibitors with the BpsA coupled assay. The following applies: compound approximately 18 μM; 0.18 μM PcpS. The format is biochemical, P. aeruginosa.
Method: 1.8 μL of each compound from a Lopac^1280 library plate was added to 30 μL of 10% DMSO in MQ using a CyBio CyBi-well, giving a final compound concentration of approximately 18 μM. Next 50 μl, of a master mix containing 5 μM Co-enzyme A, 1.66 μM BpsA, 20 mM MgCl2, 5 mM ATP, 8 mM L-Gln, 100 mM Tris-HCl pH 7.8 and MQ was added. To initiate the reaction 20 μL of PcpS at a final reaction concentration of 0.18 μM and MQ was added rapidly, using an automatic dispensing Pipette. The plate was then shaken for 10 seconds at 1000 rpm to mix the compounds. The plate was then read 25 times to measure the Absorbance at 590 nm (with 20 second intervals between each read) in an EnSpire plate reader at 25° C. […] Negative and positive controls were established in wells in these columns, and used to monitor the reaction. […] Both control reactions were run in triplicate.
1.8 μL of each compound from a Lopac^1280 library plate was added to 304 of 10% DMSO in MQ using a CyBio CyBi-well, giving a final compound concentration of approximately 18 μM. Next 50 μL of a master mix containing 5 μM Co-enzyme A, 1.66 μM BpsA, 20 mM MgCl2, 5 mM ATP, 8 mM L-Gln, 100 mM Tris-HCl pH 7.8 and MQ was added. […] The plate was then read 25 times to measure the Absorbance at 590 nm (with 20 second intervals between each read) in an EnSpire plate reader at 25° C. […]
The target in the next data set is PP1183 (Pseudomonas putida, UniProt Q88NM4). Briefly: BpsA coupled PPTase inhibition assay, PP1183. The format is biochemical, P. putida KT2440. The following applies: for IC50: IC50, PP1183, 95% CI in parentheses; for Ki: PP1183, Cheng-Prusoff, competitive inhibition.
Sequence of PP1183 (Q88NM4 entry or part of it): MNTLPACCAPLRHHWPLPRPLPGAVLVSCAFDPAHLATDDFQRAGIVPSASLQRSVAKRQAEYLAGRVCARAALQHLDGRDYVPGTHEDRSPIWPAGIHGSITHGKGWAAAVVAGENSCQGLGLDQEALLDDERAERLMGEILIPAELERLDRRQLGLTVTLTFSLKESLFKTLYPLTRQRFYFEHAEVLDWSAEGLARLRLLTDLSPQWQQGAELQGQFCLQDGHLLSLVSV
The next data set concerns the target Sfp (Bacillus spizizenii, UniProt G4NQW2). Briefly: BpsA coupled PPTase inhibition assay, Sfp. The format is biochemical, B. subtilis subsp. spizizenii ATCC6633. Conditions: for IC50: IC50, Sfp, 95% CI in parentheses; for Ki: Sfp, Cheng-Prusoff, competitive inhibition.
A further data set deals with all three PPTases. Briefly: BpsA coupled PPTase inhibition assay, summary over all three PPTases.
Data set [2] concerns the target PcpS (Pseudomonas aeruginosa, UniProt Q9I4H2). Briefly: BpsA coupled PPTase inhibition assay, PcpS. The following applies: for IC50: 95% CI in parentheses; for Ki: Cheng-Prusoff, competitive inhibition. The format is biochemical.
For another data set, the target named is T1, holo-BpsA (Streptomyces lavendulae, UniProt Q1MWN4).
T1 construct: 6His; made in house; host or cells: E. coli
T1 sequence (Q1MWN4 1-1282): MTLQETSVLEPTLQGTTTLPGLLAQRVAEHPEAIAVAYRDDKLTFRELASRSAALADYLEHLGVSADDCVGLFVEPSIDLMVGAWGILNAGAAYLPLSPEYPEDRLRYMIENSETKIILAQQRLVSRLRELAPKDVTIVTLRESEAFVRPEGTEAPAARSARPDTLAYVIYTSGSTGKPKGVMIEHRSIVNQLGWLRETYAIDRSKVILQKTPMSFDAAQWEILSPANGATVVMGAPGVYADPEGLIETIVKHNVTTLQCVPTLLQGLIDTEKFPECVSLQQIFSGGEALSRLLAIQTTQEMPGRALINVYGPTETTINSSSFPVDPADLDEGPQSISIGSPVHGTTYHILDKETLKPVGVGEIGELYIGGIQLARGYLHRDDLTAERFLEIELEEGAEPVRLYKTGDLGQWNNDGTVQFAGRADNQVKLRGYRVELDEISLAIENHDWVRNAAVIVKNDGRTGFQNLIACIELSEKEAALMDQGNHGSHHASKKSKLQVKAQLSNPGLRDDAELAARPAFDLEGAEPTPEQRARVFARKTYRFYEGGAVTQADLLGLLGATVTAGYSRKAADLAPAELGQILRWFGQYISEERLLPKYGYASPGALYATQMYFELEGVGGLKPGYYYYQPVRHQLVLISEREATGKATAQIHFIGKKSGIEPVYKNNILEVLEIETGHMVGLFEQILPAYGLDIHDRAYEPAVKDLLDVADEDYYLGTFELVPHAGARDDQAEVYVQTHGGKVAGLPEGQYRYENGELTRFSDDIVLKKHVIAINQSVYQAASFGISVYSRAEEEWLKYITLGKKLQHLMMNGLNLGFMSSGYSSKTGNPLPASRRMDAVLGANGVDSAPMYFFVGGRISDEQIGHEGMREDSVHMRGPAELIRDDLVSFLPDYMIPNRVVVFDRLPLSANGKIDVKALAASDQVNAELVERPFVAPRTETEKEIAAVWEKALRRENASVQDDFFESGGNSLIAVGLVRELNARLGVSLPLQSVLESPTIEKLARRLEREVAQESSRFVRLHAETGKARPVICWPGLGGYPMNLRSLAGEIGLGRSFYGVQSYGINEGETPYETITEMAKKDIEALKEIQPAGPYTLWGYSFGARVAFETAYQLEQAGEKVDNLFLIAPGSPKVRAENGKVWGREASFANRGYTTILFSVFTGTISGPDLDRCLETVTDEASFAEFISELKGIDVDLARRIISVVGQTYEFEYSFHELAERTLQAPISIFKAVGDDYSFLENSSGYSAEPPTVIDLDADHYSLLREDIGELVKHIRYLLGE
Briefly: Inhibition of indigoidine synthesis by pre-activated holo-BpsA (counter-screen). The format is biochemical, S. lavendulae ATCC 11924. The following applies: pre-activated holo-BpsA in isolation.

Data set [3] has as its system PcpS. Briefly: Qualitative assessment of PcpS inhibition relative to 6-NOBP. The format is biochemical, P. aeruginosa. Conditions: each inhibitor 20 μM; 0.18 μM PcpS. The protocol:
Duplicate wells with different inhibitors added. The No PcpS wells have ddH2O added instead of PcpS. The BpsA only wells have DMSO added instead of an inhibitor. The 6-NOBP wells have had 6-NOBP added at a final concentration of 20 μM. The Bay 11-7085 wells have had Bay 11-7085 added to a final concentration of 20 μM.
Bay 11-7085 was then serially diluted from 20 μM to 0.625 μM across the wells. The reaction was initiated by the addition of PcpS to a final concentration of 0.18 μM and indigoidine production was then monitored at 590 nm. Each concentration was tested in triplicate and the average of the three wells was taken to calculate the maximum velocity. The maximum velocity in each well was expressed as a percentage of the maximum velocity in the wells where no Bay11-7085 was present. For qualitative assessment of Bay11-7085 mediated inhibition of PcpS relative to 6-NOBP, duplicate wells were established with either 20 μM of each inhibitor or with DMSO added instead of an inhibitor (positive control). For a negative control, ddH2O was added instead of PcpS. Reactions were initiated by addition of 20 μL of PcpS at a final reaction concentration of 0.18 μM (or H2O for the negative control) using an automatic dispensing Pipette. The plate was then shaken for 10 seconds at 1000 rpm to mix the compounds, and incubated on the benchtop until the positive control wells had gone dark blue.

Another data set deals with E. coli. The format is cell-based. The following applies: high levels of active BpsA, excess L-Gln, extended time. The text has this: In one embodiment, activation of the NRPS BpsA then produces the dye, indigoidine. […] Due to this toxicity, E. coli cells expressing high levels of active BpsA in the presence of excess L-Gln for an extended period of time are not viable. Toxicity may be avoided by plating an E. coli reporter strain comprising a CNA expression construct on a selection medium lacking an inducer of BpsA expression. In one embodiment the inducer is IPTG.
We constructed plasmids that allowed IPTG regulated co-expression of a candidate PPTase and BpsA in E. coli BL21(DE3). To enable IPTG regulated co-expression the BpsA gene of S. lavendulae ATCC 11924 was cloned into pCDFDUET-1 (Novagen) and three candidate PPTases into the (origin of replication compatible) vector pET28a(+). […] In contrast, if IPTG was absent from the medium viable co-transformed cells were recovered with good efficiency (not shown). […] In order to circumvent this problem we employed auto-induction agar plates, prepared by addition of 1.5% agar to Studier ZYP-5052 auto-induction medium (Studier 2005). Use of auto-induction agar plates allowed for both rapid growth and efficient induction of pigment production following extended incubation at room temperature.
Initial trials were run using E. coli harbouring a P. putida PPTase expression plasmid. […]

For data set [4] the following is noted: Kuhn et al, 1965; cited from earlier work.
The nature of data set [5]: Effect of pH on indigoidine stability (loss of colouration, A590). The format is physicochemical. Conditions: culture supernatant, 50 mM sodium phosphate buffer, 20 min. The procedure: (A) Diluted sterile supernatant from an indigoidine producing culture was incubated for 20 min with 50 mM sodium phosphate buffer at each of the indicated pH values in triplicate. Loss of colouration was then assessed by measuring A590. Error bars are presented as +/− one standard deviation. (B) Indigoidine reactions differing only in the pH of the buffer used are shown.
The supernatant from BpsA-expressing cultures reached a much higher A590 (˜1.2) than the maximum achieved from any in vitro experiments (˜0.3) (not shown). Without wishing to be bound by theory, the inventors hypothesized that that since indigoidine produced and exported from a cell in vivo was effectively removed from exposure to intracellular enzymes, the loss of in vitro product may have been due to enzymatic degradation in the in vitro assay preparations. This could be due to BpsA itself, the activating PPTase or an undetected contaminating species. To test this possibility, filter sterilized culture supernatant containing indigoidine was incubated with various concentrations of each enzyme preparation used for in vitro assays. No difference in pigment levels resulted from this treatment. It was concluded that the loss of pigmentation seen in vitro was not enzyme catalysed. […] A more detailed analysis of the relationship between pH and pigment stability was then conducted. […]

Sequence of PcpS (Pseudomonas aeruginosa, UniProt Q9I4H2) (Q9I4H2 entry or part of it): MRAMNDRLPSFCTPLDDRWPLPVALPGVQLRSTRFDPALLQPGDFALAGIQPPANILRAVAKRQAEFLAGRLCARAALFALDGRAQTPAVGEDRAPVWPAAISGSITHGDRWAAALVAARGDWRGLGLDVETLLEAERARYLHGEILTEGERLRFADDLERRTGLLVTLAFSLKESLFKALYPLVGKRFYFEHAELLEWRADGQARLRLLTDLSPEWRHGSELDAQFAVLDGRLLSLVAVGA
Sequence of Sfp (G4NQW2 entry or part of it): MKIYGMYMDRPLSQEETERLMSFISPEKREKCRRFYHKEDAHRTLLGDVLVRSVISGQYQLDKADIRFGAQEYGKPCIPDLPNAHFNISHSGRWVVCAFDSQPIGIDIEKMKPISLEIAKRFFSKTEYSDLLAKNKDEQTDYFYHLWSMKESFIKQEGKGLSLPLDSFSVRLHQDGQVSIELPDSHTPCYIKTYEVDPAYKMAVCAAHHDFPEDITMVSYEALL
Method for all three PPTases: Each of the three PPTases was evaluated for inhibition across a two-fold serial dilution series of 6-NOBP (250-0.12 μM) with CoA concentration fixed at either 10 or 2.5 μM. […] Derived Ki values were most consistent between CoA concentrations when the Cheng-Prusoff equation for competitive inhibition was employed.
Triplicate two fold serial dilution series (250-0.12 μM) of the previously identified PPTase inhibitor 6-NOBP were established in a final volume of 50 ml 10% DMSO in a 96 wp. 100 μL of reaction mix (20 or 5 μM CoA, 5 mM ATP, 20 mM MgCl2, 8 mM L-Gln and 100 mM Tris-CL, 1.66 μM apo-BpsA, pH 7.8) was then added to each well. Reactions were then initiated by addition of 50 μL 0.32-1.0 μM PPTase in water to each well followed by mixing at 1000 rpm for 10 s. A590 values were then recorded and PPTase velocities determined as previously described.

Take `O=Nc1ccc2oc(=O)ccc2c1` [6-NOBP]: the “Outcome in high throughput screen for PcpS inhibitors” value with PcpS [1] is on record as “weak PcpS inhibitor”. Further, the 50% inhibitory concentration (IC50) on PP1183 (1.25 μM CoA) was 3.7 µM; on PP1183 (5 μM CoA), 9.81 µM; at Sfp (1.25 μM CoA), 2.11 µM; at Sfp (5 μM CoA), 9.06 µM; on all three PPTases (read-out: IC50 values, range over the three PPTases, CoA concentration set at 5 μM) it was 9.1 to 10.8 µM; on PcpS [2] (1.25 μM CoA), 4.05 µM. For the same molecule, the IC50 is 10.8 µM at PcpS [2] (5 μM CoA) and 29.2 µM at holo-BpsA. In addition, the Ki was 3.3 µM at PP1183 (1.25 μM CoA); 6.8 µM on PP1183 (5 μM CoA); 0.7 µM at Sfp (1.25 μM CoA); 1 µM at Sfp (5 μM CoA); 0.5 to 7.5 µM on all three PPTases (read-out: K, values, range over the three PPTases, converted from IC50 with Km of each PPTase); 3.1 µM at PcpS [2] (1.25 μM CoA). At PcpS [2] (5 μM CoA), this molecule yielded a Ki of 4.7 µM.

`CC(C)(C)c1ccc(S(=O)(=O)/C=C/C#N)cc1` [Bay11-7085]: the “Qualitative inhibition of PcpS relative to 6-NOBP” value in the data set with PcpS [3] is recorded as “clearly a stronger inhibitor of PcpS than 6-NOBP”.

In the case of indigoidine, the “Toxicity to E. coli” value with E. coli is “toxic to E. coli over time”. Also, in data set [4], the “Pigment stability versus pH (previous observations)” value is listed as “unstable at alkaline pH”. The “Pigment stability versus pH” value in [5] was “decolouration occurred to a greater extent at higher pH”.

The values above are taken from patent US20130260436A1, “Methods of Identifying and Characterizing Natural Product Gene Clusters” (Victoria LInk Limited, priority 2010, published 2013).
